A word on the IC50: it is the concentration needed to halve the response being measured.

The source of these data is patent US20230048132A1, “CYCLIN-DEPENDENT KINASE INHIBITORS” (SPV THERAPEUTICS INC., priority 2018, published 2023).

Where two headings read alike, the source gives them in different places.

Common to all, as to assay: CDK inhibition assay (microfluidic LabChip, IC50 format)
The target in one assay is CDK1/B (Homo sapiens, UniProt P06493). The assay is classed as biochemical. The conditions noted are these: Table 4b, lower part.
CDK1/B, sequence (P06493 whole entry, species assumed): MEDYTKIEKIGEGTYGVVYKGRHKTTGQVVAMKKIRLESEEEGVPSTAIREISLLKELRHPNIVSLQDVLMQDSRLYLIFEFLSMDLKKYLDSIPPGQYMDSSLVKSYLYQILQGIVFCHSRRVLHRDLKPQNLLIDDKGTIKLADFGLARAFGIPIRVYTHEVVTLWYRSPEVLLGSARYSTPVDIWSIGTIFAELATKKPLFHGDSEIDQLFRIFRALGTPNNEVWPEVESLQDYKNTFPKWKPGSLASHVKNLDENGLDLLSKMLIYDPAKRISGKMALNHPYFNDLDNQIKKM
CDK1/B, sequence (P14635 whole entry partner, species assumed): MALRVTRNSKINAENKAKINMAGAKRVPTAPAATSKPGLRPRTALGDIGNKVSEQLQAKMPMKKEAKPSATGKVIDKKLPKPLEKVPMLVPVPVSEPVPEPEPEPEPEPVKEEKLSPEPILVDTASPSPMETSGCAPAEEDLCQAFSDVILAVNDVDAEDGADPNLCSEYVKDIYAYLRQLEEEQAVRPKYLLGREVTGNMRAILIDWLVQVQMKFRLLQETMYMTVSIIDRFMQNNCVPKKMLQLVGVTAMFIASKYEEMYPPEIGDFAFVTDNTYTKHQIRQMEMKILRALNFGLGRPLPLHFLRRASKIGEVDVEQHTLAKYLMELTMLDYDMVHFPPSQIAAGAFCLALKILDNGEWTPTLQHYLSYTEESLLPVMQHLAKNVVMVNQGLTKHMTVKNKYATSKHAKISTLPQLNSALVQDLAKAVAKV
The next assay concerns the target T1, CDK2-CYCLINA (Homo sapiens, UniProt P24941).
T1 construct: purchased Millipore
The assay is classed as biochemical. To be noted: read-out: CDK2 CyclinA IC50.

The target of another assay is T2, CDK9-CYCLINT1 (Homo sapiens, UniProt P50750).
T2 construct: purchased Carna
T2 sequence (P50750 whole entry): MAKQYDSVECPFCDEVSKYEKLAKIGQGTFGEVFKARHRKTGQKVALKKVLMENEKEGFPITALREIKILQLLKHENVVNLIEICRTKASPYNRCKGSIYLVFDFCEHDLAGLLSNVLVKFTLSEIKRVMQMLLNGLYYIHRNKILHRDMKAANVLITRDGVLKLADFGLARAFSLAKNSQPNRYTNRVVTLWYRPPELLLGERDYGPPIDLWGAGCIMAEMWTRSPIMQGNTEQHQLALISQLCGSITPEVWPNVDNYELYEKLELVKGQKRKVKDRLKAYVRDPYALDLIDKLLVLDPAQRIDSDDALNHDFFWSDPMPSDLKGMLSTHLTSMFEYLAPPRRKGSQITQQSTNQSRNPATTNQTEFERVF
T2 sequence (O60563 whole entry partner): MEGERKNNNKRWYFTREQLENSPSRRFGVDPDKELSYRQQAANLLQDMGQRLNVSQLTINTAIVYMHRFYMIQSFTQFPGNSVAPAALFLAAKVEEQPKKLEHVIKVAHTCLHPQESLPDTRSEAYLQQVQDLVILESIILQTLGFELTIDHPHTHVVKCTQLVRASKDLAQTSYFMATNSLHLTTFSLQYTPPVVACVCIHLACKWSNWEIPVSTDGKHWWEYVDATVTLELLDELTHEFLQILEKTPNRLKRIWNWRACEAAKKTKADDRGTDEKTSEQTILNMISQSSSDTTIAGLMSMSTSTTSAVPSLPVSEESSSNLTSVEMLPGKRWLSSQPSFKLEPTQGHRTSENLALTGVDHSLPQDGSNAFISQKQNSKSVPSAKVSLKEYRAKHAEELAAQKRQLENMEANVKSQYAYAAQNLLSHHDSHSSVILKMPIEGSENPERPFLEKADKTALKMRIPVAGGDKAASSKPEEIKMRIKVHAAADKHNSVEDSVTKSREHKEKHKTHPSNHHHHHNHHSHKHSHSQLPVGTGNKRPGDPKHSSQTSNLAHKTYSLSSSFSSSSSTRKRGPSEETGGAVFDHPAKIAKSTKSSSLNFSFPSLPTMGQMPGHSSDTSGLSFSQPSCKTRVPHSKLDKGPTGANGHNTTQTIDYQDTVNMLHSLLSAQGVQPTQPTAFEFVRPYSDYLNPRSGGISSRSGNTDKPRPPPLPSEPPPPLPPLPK
The class given is biochemical. The conditions noted are these: read-out: CDK9 CyclinT1 IC50.

In another assay the target is CDK7 CyclinH (Homo sapiens, UniProt P50613). The class given is biochemical.
CDK7 CyclinH, sequence (P50613 whole entry): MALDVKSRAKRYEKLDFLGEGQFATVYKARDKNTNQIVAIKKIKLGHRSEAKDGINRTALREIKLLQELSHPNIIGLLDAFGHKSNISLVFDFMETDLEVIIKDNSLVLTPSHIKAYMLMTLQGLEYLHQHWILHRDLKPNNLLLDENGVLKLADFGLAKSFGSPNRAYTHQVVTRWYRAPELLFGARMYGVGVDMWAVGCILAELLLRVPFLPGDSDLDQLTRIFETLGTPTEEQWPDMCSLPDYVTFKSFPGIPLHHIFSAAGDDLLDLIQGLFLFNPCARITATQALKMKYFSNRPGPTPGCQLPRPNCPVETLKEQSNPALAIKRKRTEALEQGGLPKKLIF
CDK7 CyclinH, sequence (P51946 whole entry partner): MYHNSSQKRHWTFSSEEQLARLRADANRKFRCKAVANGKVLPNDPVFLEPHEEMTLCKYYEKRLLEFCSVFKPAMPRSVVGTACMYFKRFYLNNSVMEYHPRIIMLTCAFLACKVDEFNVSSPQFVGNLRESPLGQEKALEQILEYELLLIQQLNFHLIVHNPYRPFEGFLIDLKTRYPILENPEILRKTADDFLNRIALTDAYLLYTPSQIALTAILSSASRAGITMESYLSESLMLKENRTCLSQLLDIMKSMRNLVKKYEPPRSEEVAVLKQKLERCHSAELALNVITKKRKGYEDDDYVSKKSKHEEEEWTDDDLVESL
CDK7 CyclinH, sequence (P51948 whole entry partner): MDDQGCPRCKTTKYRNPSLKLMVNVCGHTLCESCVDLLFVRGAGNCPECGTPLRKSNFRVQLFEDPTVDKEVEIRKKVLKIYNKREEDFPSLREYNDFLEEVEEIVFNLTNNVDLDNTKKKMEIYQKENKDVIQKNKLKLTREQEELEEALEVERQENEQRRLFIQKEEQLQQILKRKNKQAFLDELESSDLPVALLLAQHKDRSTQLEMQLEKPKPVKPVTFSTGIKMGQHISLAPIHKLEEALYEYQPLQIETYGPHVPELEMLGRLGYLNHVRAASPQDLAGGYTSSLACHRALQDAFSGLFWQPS
For a further assay, the target named is CDK4-CYCLIND1 (Homo sapiens, UniProt P11802). The conditions noted are these: a second value in parentheses for some compounds.
CDK4-CYCLIND1, sequence (P11802 whole entry): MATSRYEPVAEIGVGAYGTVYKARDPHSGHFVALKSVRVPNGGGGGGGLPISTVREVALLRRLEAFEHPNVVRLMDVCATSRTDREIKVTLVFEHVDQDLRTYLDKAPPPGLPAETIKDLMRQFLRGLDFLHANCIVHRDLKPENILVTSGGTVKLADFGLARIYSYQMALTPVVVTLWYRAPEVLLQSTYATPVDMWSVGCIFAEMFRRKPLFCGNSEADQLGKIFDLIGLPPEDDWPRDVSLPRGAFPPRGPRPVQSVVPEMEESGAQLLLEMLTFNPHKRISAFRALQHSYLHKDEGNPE
CDK4-CYCLIND1, sequence (P24385 whole entry partner): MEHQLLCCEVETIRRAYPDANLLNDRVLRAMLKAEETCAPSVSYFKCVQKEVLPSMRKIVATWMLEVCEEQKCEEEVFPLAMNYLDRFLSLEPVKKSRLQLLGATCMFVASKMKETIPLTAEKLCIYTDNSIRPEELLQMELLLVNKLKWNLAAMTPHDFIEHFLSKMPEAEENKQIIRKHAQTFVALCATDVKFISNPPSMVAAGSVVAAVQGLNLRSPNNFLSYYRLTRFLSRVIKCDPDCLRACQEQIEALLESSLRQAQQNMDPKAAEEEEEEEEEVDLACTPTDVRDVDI
A further assay addresses T3, CDK6-CYCLIND3 (Homo sapiens, UniProt Q00534).
T3 construct: purchased Carna
The assay is classed as biochemical. The conditions noted are these: read-out: CDK6 CyclinD3 IC50.

The mark [1] stands for this setting: CDK4 CyclinD1 IC50, Table 4b, lower part.

T3 sequence (Q00534 whole entry): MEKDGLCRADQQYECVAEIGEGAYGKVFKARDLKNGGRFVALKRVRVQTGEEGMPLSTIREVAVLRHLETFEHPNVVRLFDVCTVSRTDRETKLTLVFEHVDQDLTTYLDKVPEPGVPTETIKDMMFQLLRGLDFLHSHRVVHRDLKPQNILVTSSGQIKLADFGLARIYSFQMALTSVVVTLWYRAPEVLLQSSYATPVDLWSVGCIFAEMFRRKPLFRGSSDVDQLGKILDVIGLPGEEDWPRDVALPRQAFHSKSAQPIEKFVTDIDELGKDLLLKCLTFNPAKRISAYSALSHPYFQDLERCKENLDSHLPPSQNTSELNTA
T3 sequence (P30281 whole entry partner): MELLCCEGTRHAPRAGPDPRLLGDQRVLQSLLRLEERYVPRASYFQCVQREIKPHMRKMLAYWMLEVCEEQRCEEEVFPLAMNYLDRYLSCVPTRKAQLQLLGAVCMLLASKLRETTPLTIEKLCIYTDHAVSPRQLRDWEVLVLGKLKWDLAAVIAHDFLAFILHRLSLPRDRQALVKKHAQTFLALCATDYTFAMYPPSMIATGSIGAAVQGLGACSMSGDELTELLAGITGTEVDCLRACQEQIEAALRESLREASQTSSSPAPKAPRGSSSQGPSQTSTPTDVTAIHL

For `CC(C)c1ccc(Nc2ncc3c(n2)N(C2CCCC2)C(=O)[C@]2(CCNC2=O)C3)cc1` [Example D115, (S)-8-cyclopentyl-2-((4-isopropylphenyl)amino)-5,8-dihydro-7H-spiro[pyrido[2,3-d]pyrimidine-6,3′-pyrrolidine]-2′,7-dione], the IC50 at CDK1/B is 563 nM; on CDK2-CYCLINA (Table 4b, lower part) it was 135 nM; on CDK9-CYCLINT1 (Table 4b, lower part), 9.03 nM; against CDK7 CyclinH (Table 4b, lower part), over 10000 nM.
The matching figures for `CC(C)N1CCC(Nc2ncc3c(n2)N(C2CCCC2)C(=O)[C@]2(CCNC2=O)C3)CC1` [Example D125, (S)-8-cyclopentyl-2-((1-isopropylpiperidin-4-yl)amino)-5,8-dihydro-7H-spiro[pyrido[2,3-d]pyrimidine-6,3′-pyrrolidine]-2′,7-dione]: 1160 nM, 1140 nM, 20.5 nM and 557 nM.
For the compound `CCN1CCN(Cc2ccc(Nc3ncc4c(n3)N(C35CC(C3)C5)C(=O)[C@]3(CCNC3=O)C4)nc2)CC1` [Example D190, (S)-8-(bicyclo[1.1.1]pentan-1-yl)-2-((5-((4-ethylpiperazin-1-yl)methyl)pyridin-2-yl)amino)-5,8-dihydro-7H-spiro[pyrido[2,3-d]pyrimidine-6,3′-pyrrolidine]-2′,7-dione], the IC50 on CDK4-CYCLIND1 (setting [1]) is 11400 nM; on CDK2-CYCLINA (Table 4b, lower part), over 100000 nM; on CDK9-CYCLINT1 (Table 4b, lower part), 21800 nM; on CDK6-CYCLIND3 (Table 4b, lower part), 34200 nM; against CDK7 CyclinH (Table 4b, lower part), over 100000 nM.
For `CN1CCN(c2ccc(Nc3ncc4c(n3)N(C35CC(C3)C5)C(=O)C3(CCNC3=O)C4)cc2F)CC1` (stereo not shown) [Example D183, 8-(bicyclo[1.1.1]pentan-1-yl)-2-((3-fluoro-4-(4-methylpiperazin-1-yl)phenyl)amino)-5,8-dihydro-7H-spiro[pyrido[2,3-d]pyrimidine-6,3′-pyrrolidine]-2′,7-dione], the IC50 was 22.9 nM on CDK4-CYCLIND1 (setting [1]); 2430 nM on CDK2-CYCLINA (Table 4b, lower part); 76.8 nM at CDK9-CYCLINT1 (Table 4b, lower part); 66.2 nM at CDK6-CYCLIND3 (Table 4b, lower part); 2340 nM at CDK7 CyclinH (Table 4b, lower part).
`O=C1NCC[C@@]12Cc1cnc(Nc3ccc(N4CCNCC4)cn3)nc1N(C1CCCC1)C2=O` [Example D152, (S)-8-cyclopentyl-2-((5-(piperazin-1-yl)pyridin-2-yl)amino)-5,8-dihydro-7H-spiro[pyrido[2,3-d]pyrimidine-6,3′-pyrrolidine]-2′,7-dione]: the IC50 was 1.18 nM at CDK4-CYCLIND1 (CDK4 CyclinD1 IC50, Table 4a); 1710 nM on CDK2-CYCLINA (Table 4a); 120 nM on CDK9-CYCLINT1 (Table 4a); 1.64 nM at CDK6-CYCLIND3 (Table 4a); 19000 nM on CDK7 CyclinH (Table 4a).
As for `CN1CCN(c2ccc(Nc3ncc4c(n3)N(C35CC(C3)C5)C(=O)[C@]3(CCNC3=O)C4)cc2F)CC1` [Example D185, (S)-8-(bicyclo[1.1.1]pentan-1-yl)-2-((3-fluoro-4-(4-methylpiperazin-1-yl)phenyl)amino)-5,8-dihydro-7H-spiro[pyrido[2,3-d]pyrimidine-6,3′-pyrrolidine]-2′,7-dione], the IC50 at CDK4-CYCLIND1 (setting [1]) amounted to 15.6 nM; at CDK2-CYCLINA (Table 4b, lower part), 1060 nM; at CDK9-CYCLINT1 (Table 4b, lower part) it was 36.7 nM; on CDK6-CYCLIND3 (Table 4b, lower part), 31.2 nM; against CDK7 CyclinH (Table 4b, lower part), 1170 nM.
Take `CN1CCN(c2ccc(Nc3ncc4c(n3)N(C3CCCC3)C(=O)[C@]3(CCNC3=O)C4)nc2)CC1` [Example D153, (S)-8-cyclopentyl-2-((5-(4-methylpiperazin-1-yl)pyridin-2-yl)amino)-5,8-dihydro-7H-spiro[pyrido[2,3-d]pyrimidine-6,3′-pyrrolidine]-2′,7-dione]: the IC50 was 2.94 nM on CDK4-CYCLIND1 (CDK4 CyclinD1 IC50, Table 4a); 2440 nM at CDK2-CYCLINA (Table 4a); 316 nM at CDK9-CYCLINT1 (Table 4a); 3.62 nM on CDK6-CYCLIND3 (Table 4a); 18400 nM against CDK7 CyclinH (Table 4a).
Turning to `CC(C)N1CCN(c2ccc(Nc3ncc4c(n3)N(C35CC(C3)C5)C(=O)[C@]3(CCNC3=O)C4)nc2)CC1` [Example D189, (S)-8-(bicyclo[1.1.1]pentan-1-yl)-2-((5-(4-isopropylpiperazin-1-yl)pyridin-2-yl)amino)-5,8-dihydro-7H-spiro[pyrido[2,3-d]pyrimidine-6,3′-pyrrolidine]-2′,7-dione], the 50% inhibitory concentration (IC50) at CDK4-CYCLIND1 (setting [1]) is 28700 nM; on CDK2-CYCLINA (Table 4b, lower part), over 100000 nM; at CDK9-CYCLINT1 (Table 4b, lower part) it was 17700 nM; on CDK6-CYCLIND3 (Table 4b, lower part) it was 41600 nM; against CDK7 CyclinH (Table 4b, lower part), over 100000 nM.
`CN(C)[C@H]1CCN(C(=O)c2ccc(Nc3ncc4c(n3)N(C3CCCC3)C(=O)[C@]3(CCNC3=O)C4)cc2)C1` [Example D177, (S)-8-cyclopentyl-2-((4-((S)-3-(dimethylamino)pyrrolidine-1-carbonyl)phenyl)amino)-5,8-dihydro-7H-spiro[pyrido[2,3-d]pyrimidine-6,3′-pyrrolidine]-2′,7-dione]: the IC50 on CDK4-CYCLIND1 (CDK4 CyclinD1 IC50, Table 4a) stood at 4.72 nM; on CDK2-CYCLINA (Table 4a) it was 50 nM; on CDK9-CYCLINT1 (Table 4a) it was 19.1 nM; on CDK6-CYCLIND3 (Table 4a), 13.9 nM; against CDK7 CyclinH (Table 4a), 2940 nM.
For `Cc1cc(N2CCNCC2)ccc1Nc1ncc2c(n1)N(C1CCCC1)C(=O)[C@]1(CCNC1=O)C2` [Example D162, (S)-8-cyclopentyl-2-((2-methyl-4-(piperazin-1-yl)phenyl)amino)-5,8-dihydro-7H-spiro[pyrido[2,3-d]pyrimidine-6,3′-pyrrolidine]-2′,7-dione] the same measures were 5.34 nM, 382 nM, 61.9 nM, 10.4 nM and 3240 nM.
The matching figures for `O=C1NCC[C@@]12Cc1cnc(Nc3ccc(N4CCNCC4)nc3)nc1N(C1CCCC1)C2=O` [Example D149, (S)-8-cyclopentyl-2-((6-(piperazin-1-yl)pyridin-3-yl)amino)-5,8-dihydro-7H-spiro[pyrido[2,3-d]pyrimidine-6,3′-pyrrolidine]-2′,7-dione]: 1.22 nM, 35.6 nM, 7.52 nM, 2.82 nM and 340 nM.
`CN1CCN(c2ccc(Nc3ncc4c(n3)N(C35CC(C3)C5)C(=O)[C@]3(CCNC3=O)C4)cc2)CC1` [Example D186, (S)-8-(bicyclo[1.1.1]pentan-1-yl)-2-((4-(4-methylpiperazin-1-yl)phenyl)amino)-5,8-dihydro-7H-spiro[pyrido[2,3-d]pyrimidine-6,3′-pyrrolidine]-2′,7-dione]: the IC50 is 13.9 nM at CDK4-CYCLIND1 (setting [1]); 1490 nM at CDK2-CYCLINA (Table 4b, lower part); 61.5 nM at CDK9-CYCLINT1 (Table 4b, lower part); 38.7 nM on CDK6-CYCLIND3 (Table 4b, lower part); 2320 nM against CDK7 CyclinH (Table 4b, lower part).
For `CN1CCN(c2ccc(Nc3ncc4c(n3)N(C35CC(C3)C5)C(=O)[C@]3(CCNC3=O)C4)nc2)CC1` [Example D188, (S)-8-(bicyclo[1.1.1]pentan-1-yl)-2-((5-(4-methylpiperazin-1-yl)pyridin-2-yl)amino)-5,8-dihydro-7H-spiro[pyrido[2,3-d]pyrimidine-6,3′-pyrrolidine]-2′,7-dione] the same measures were 10600 nM, over 100000 nM, over 100000 nM, 21700 nM and over 100000 nM.
`CC(C)c1ccc(Nc2ncc3c(n2)N(C2CCCC2)C(=O)[C@]2(CCNC2=O)C3)cc1F` [Example D130, (S)-8-cyclopentyl-2-((3-fluoro-4-isopropylphenyl)amino)-5,8-dihydro-7H-spiro[pyrido[2,3-d]pyrimidine-6,3′-pyrrolidine]-2′,7-dione]: the IC50 at CDK1/B was 1060 nM; on CDK2-CYCLINA (Table 4b, lower part) it was 242 nM; on CDK9-CYCLINT1 (Table 4b, lower part), 12.3 nM; against CDK7 CyclinH (Table 4b, lower part) it was over 10000 nM.
